Test results taken from ChEMBL document CHEMBL4823282, “Novel Broad-Spectrum Antimicrobial Peptide Derived from Anoplin and Its Activity on Bacterial Pneumonia in Mice” (J Med Chem, 2021).
Active and inactive are the calls of the source. The rule behind the calls is not given here. Where a SMILES comes first, the peptide text is derived from it. Bridges are numbered along the chain shown (N, C = ends). [ ]: non-standard residue; d: D form. The star is where a group is joined. X1 = CC[C@H](C)CCCCC(=O)*; Dab = NCC[C@H](N)C(=O)O

Legend:
[1] = Induction of nephrotoxicity in BALB/C mouse at 82 mg/kg, ip administered as single dose by hematoxylin and eosin staining based assay; format: organism-based; settings: in vivo
[2] = system: Escherichia coli; test: Antibiofilm activity against Escherichia coli ATCC 25922 incubated for 24 hrs by crystal violet staining assay; format: functional, organism-based
[3] = Induction of renal interstitial cell hemorrhage in BALB/C mouse at 82 mg/kg, ip administered as single dose by hematoxylin and eosin staining based assay; format: organism-based; settings: in vivo
[4] = Toxicity in BALB/C mouse assessed as effect on heart at 19 mg/kg, ip administered as single dose by hematoxylin and eosin staining based assay; format: organism-based; settings: in vivo
[5] = system: Klebsiella pneumoniae; test: Disruption of membrane integrity in Klebsiella pneumoniae ATCC 700603 assessed as membrane creeping at 1 times MIC incubated for 0.5 to 2 hrs by scanning electron microscopy; format: functional, organism-based; settings: time 0.5-2 hrs
[6] = system: Staphylococcus aureus; test: Disruption of membrane integrity in Staphylococcus aureus ATCC 25923 assessed as pore formation at 1 times MIC incubated for 0.5 to 2 hrs by scanning electron microscopy; format: functional, organism-based; settings: time 0.5-2 hrs
[7] = system: Escherichia coli; test: Synergistic antibacterial activity against Escherichia coli ATCC 25922 at 2 times MIC incubated for 18 to 24 hrs in presence of 2 times MIC of gentamycin by broth microdilution assay based checkerboard assay; format: functional; settings: time 18-24 hrs
[8] = system: Klebsiella pneumoniae; test: Antibacterial activity against Klebsiella pneumoniae ATCC 700603 infected in BALB/C mouse assessed as reduction in bacterial load in lung at 10 mg/kg, ip measured within 24 hrs by agar plate counting method (reference value: 2.77 x 10^7 CFU/mg); format: functional
[9] = system: A549; test: Cytotoxicity against human A549 cells incubated for 12 hrs by MTT assay; format: cell-based; settings: A549, 12 h
[10] = Toxicity in BALB/C mouse assessed as effect on kidney at 19 mg/kg, ip administered as single dose by hematoxylin and eosin staining based assay; format: organism-based; settings: in vivo
[11] = system: Cell membrane; test: Induction of outer membrane permeabilization in Klebsiella pneumoniae ATCC 700603 measured within 1 mins by N-phenylnaphthylamine dye based fluorescent method; format: subcellular; settings: Klebsiella pneumoniae 700603
[12] = system: Cell membrane; test: Induction of outer membrane permeabilization in Klebsiella pneumoniae ATCC 700603 at 2 to 4 MIC by N-phenylnaphthylamine dye based fluorescent method; format: subcellular; settings: Klebsiella pneumoniae 700603, 2 to 4 M
[13] = system: Klebsiella pneumoniae; test: Antibacterial activity against Klebsiella pneumoniae ATCC 700603 infected in BALB/C mouse assessed as alveolar expansion at 5 mg/kg, ip by hematoxylin and eosin staining based assay; format: functional, organism-based
[14] = system: Pseudomonas aeruginosa; test: Synergistic antibacterial activity against Pseudomonas aeruginosa ATCC 27853 at 2 times MIC incubated for 18 to 24 hrs in presence of 2 times MIC of polymyxin B by broth microdilution assay based checkerboard assay; format: functional; settings: time 18-24 hrs
[15] = system: Pseudomonas aeruginosa; test: Antibacterial activity against Pseudomonas aeruginosa ATCC 27853 at sub-MIC level after 15 passages by broth microdilution assay; format: functional, organism-based
[16] = Stability in BALB/C mouse serum measured up to 1440 mins by HPLC analysis; format: ADME, cell-free
[17] = system: Staphylococcus aureus; test: Antibacterial activity against Staphylococcus aureus ATCC 25923 incubated with 0.2 to 0.02 ug/ml trypsin for 6 hrs followed by bacterial addition and measured after 18 hrs by CLSI based broth dilution method; format: functional, organism-based; settings: dose 0.2-0.02 µg/ml, time 23.0 hrs
[18] = system: Klebsiella pneumoniae; test: Disruption of membrane integrity in Klebsiella pneumoniae ATCC 700603 assessed as membrane blebbing at 1 times MIC incubated for 0.5 to 2 hrs by scanning electron microscopy; format: functional, organism-based; settings: time 0.5-2 hrs
[19] = system: Klebsiella pneumoniae; test: Antibacterial activity against Klebsiella pneumoniae ATCC 700603 infected in BALB/C mouse assessed as reduction in bacterial load at 5 to 10 mg/kg, ip by hematoxylin and eosin staining based assay; format: functional, organism-based; settings: dose 5-10 mg/kg
[20] = system: Staphylococcus aureus; test: Antibacterial activity against Staphylococcus aureus ATCC 25923 incubated with 0.2 to 0.02 ug/ml chymotrypsin for 6 hrs followed by bacterial addition and measured after 18 hrs by CLSI based broth dilution method; format: functional, organism-based; settings: dose 0.2-0.02 µg/ml
[21] = system: Staphylococcus aureus; test: Disruption of membrane integrity in Staphylococcus aureus ATCC 25923 assessed as membrane creeping at 1 times MIC incubated for 0.5 to 2 hrs by scanning electron microscopy; format: functional, organism-based; settings: time 0.5-2 hrs
[22] = system: Klebsiella pneumoniae; test: Disruption of membrane integrity in Klebsiella pneumoniae ATCC 700603 assessed as content leakage at 1 times MIC incubated for 0.5 to 2 hrs by scanning electron microscopy; format: functional, organism-based; settings: time 0.5-2 hrs
[23] = system: Staphylococcus aureus; test: Drug localization in surface of Staphylococcus aureus ATCC 25923 at 2 times MIC incubated for 30 mins using ACD-labeled compound by PI-staining based laser scanning confocal microscopic analysis; format: functional, organism-based
[24] = Toxicity in BALB/C mouse assessed as induction of tissue hemorrhage at 19 mg/kg, ip administered as single dose by hematoxylin and eosin staining based assay; format: organism-based; settings: in vivo
[25] = Toxicity in BALB/C mouse assessed as mouse death at 15 to 25 mg/kg, ip measured after 24 hrs; format: organism-based; settings: in vivo, dose 15-25 mg/kg
[26] = system: Klebsiella pneumoniae; test: Disruption of membrane integrity in Klebsiella pneumoniae ATCC 700603 assessed as pore formation at 1 times MIC incubated for 0.5 to 2 hrs by scanning electron microscopy; format: functional, organism-based; settings: time 0.5-2 hrs
[27] = Toxicity in BALB/C mouse assessed as effect on lung at 19 mg/kg, ip administered as single dose by hematoxylin and eosin staining based assay; format: organism-based; settings: in vivo
[28] = Toxicity in BALB/C mouse assessed as effect on spleen at 19 mg/kg, ip administered as single dose by hematoxylin and eosin staining based assay; format: organism-based; settings: in vivo
[29] = system: Staphylococcus aureus; test: Antibacterial activity against Staphylococcus aureus ATCC 25923 incubated with 2000 ug/ml trypsin for 6 hrs followed by bacterial addition and measured after 18 hrs by CLSI based broth dilution method; format: functional, organism-based; settings: dose 2000.0 µg/ml, time 23.0 hrs
[30] = system: Cell membrane; test: Disruption of membrane integrity in Klebsiella pneumoniae ATCC 700603 assessed as membrane swelling at 1 times MIC incubated for 0.5 to 2 hrs by scanning electron microscopy; format: subcellular; settings: Klebsiella pneumoniae 700603, time 0.5-2 hrs
[31] = system: Cell membrane; test: Disruption of membrane integrity in Klebsiella pneumoniae ATCC 700603 assessed as membrane cracking at 1 times MIC incubated for 0.5 to 2 hrs by scanning electron microscopy; format: subcellular; settings: Klebsiella pneumoniae 700603, time 0.5-2 hrs
[32] = system: Staphylococcus aureus; test: Antibacterial activity against Staphylococcus aureus ATCC 25923 incubated with 2000 ug/ml chymotrypsin for 6 hrs followed by bacterial addition and measured after 18 hrs by CLSI based broth dilution method; format: functional, organism-based; settings: dose 2000.0 µg/ml, time 23.0 hrs
[33] = system: Escherichia coli; test: Antibiofilm activity against Escherichia coli ATCC 25922 at 4 times MIC incubated for 24 hrs by crystal violet staining based assay; format: functional, organism-based
[34] = system: Klebsiella pneumoniae; test: Antibiofilm activity against Klebsiella pneumoniae ATCC 700603 at 2 to 4 times MIC incubated for 24 hrs by crystal violet staining based assay; format: functional, organism-based
[35] = system: Klebsiella pneumoniae; test: Reduction in inflammatory cell infiltration in lung of BALB/C mouse infected with Klebsiella pneumoniae ATCC 700603 at 5 mg/kg, ip by hematoxylin and eosin staining based assay; format: functional, organism-based
[36] = Toxicity in BALB/C mouse infected with Klebsiella pneumoniae ATCC 700603 assessed as hepatic hemorrhage at 5 mg/kg, ip by hematoxylin and eosin staining based assay; format: organism-based; settings: in vivo

Compound: NCCCC[C@H](NC(=O)[C@H](CCCCN)NC(=O)[C@H](Cc1c[nH]c2ccccc12)NC(=O)[C@H](CCCCN)NC(=O)[C@H](CCCCN)NC(=O)[C@H](Cc1c[nH]c2ccccc12)NC(=O)[C@H](Cc1c[nH]c2ccccc12)NC(=O)[C@@H](N)CCCCN)C(=O)N[C@@H](Cc1c[nH]c2ccccc12)C(=O)N[C@@H](Cc1c[nH]c2ccccc12)C(N)=O (H-KWWKKWKKWW-NH2)
- Activity [1]: Toxic
- Activity [2]: Dose-Dependent Effect
- Activity [3]: Toxic
- Activity [4]: Toxic
- Activity [5]: Active
- Activity [6]: Active
- FIC [7]: 0.5625
- Activity [8]: 3.26 10^3CFU/mg
- IC50 [9]: 87.5 µM
- Activity [10]: Toxic
- Activity [11]: Dose-Dependent Effect
- Activity [12]: Active
- Activity [13]: Active
- FIC [14]: 0.5625
- Activity [15]: Active
- half-life [16]: 50.1 min
- Activity [17]: Active
- Activity [18]: Active
- Activity [19]: Active
- Activity [20]: inactive
- Activity [21]: Active
- Activity [22]: Active
- Activity [23]: Active
- Activity [24]: Toxic
- Activity [25]: Toxic
- Activity [26]: Active
- Activity [27]: Toxic
- Activity [28]: Toxic

Compound: CC[C@H](C)CCCCC(=O)N[C@@H](CCN)C(=O)N[C@H](C(=O)N[C@@H](CCN)C(=O)N[C@H]1CCNC(=O)[C@H]([C@@H](C)O)NC(=O)[C@H](CCN)NC(=O)[C@H](CCN)NC(=O)[C@H](CC(C)C)NC(=O)[C@@H](Cc2ccccc2)NC(=O)[C@H](CCN)NC1=O)[C@@H](C)O (X1-[Dab]T[Dab][Dab][Dab][dF]L[Dab][Dab]T; lactam 4-C)
- Activity [29]: Active
- Activity [30]: Active
- Activity [31]: Active
- Activity [32]: Active
- Activity [33]: Active
- Activity [34]: Active
- Activity [35]: inactive
- Activity [36]: Toxic
